Measured values from patent publication US20260335282A1, “NOVEL 3-ARYLIDENE-2-INDOLINONE DERIVATIVES FOR THERAPEUTIC USE” (ISTANBUL UNIVERSITESI REKTORLUGU, priority 2022, published 2026).
Entries after “also recorded” stand apart in the source; their conditions may differ.

Tests used:
[1] = tested on: general tyrosine kinase activity in A498 kidney cancer cells; assay: General tyrosine kinase activity (ELISA) in A498 cells; assay type: cell-based, human; conditions: IC50 concentration
Experimental: (§1) Takara Universal Tyrosine Kinase Assay Kit is used to determine the effects of 11 2-indolinone compounds (Y1, Y2, Y3, Y4, Y5, Y8, […], […], Y21, Y23, 20C, 22C) on general tyrosine kinase activity in cancer cells. Cells are seeded in 6-well plates (4.10^5 cells/well) and the IC50 concentration of each selected molecule is performed to the cells for 48 or 72 hours. Cells in the control group are incubated with medium only. At the end of the incubation period, the cells in each well are washed with PBS and cells are removed from the wells using a cell scraper via 1 ml of the extraction buffer in the kit. The cell lysate is transferred to ependorf tubes and centrifuged at 10.000 g for 10 minutes at +4° C. and the supernatant is used as a sample for activity determination. After the extracts obtained from the control and experimental groups are diluted 1:25, 40 μl extracts is transferred to two wells in the 96-well plate in the kit. In addition, the standard solution in the kit is diluted according to the kit instructions and each concentration is transferred 40 μl into three wells. 10 μl of 40 mM ATP-2Na solution is added to all wells and the plate is incubated at 37° C. for 30 minutes. […] The reaction is finished by adding 100 μl of stop solution to each well and the optical density in each well is measured at 405 nm with a microplate reader (BioTek, USA). The tyrosine kinase activity in each sample is calculated from the standard curve obtained from the absorbance values of the standard solutions with the kit (Chan W Y, Lau P M, Yeung K W, Kong S K. The second generation tyrosine kinase inhibitor dasatinib induced eryptosis in human erythrocytes—An in vitro study. Toxicol Lett. 2018; 295:10-21). […]
The effects of 11 2-indolinone compounds (Y1, Y2, Y3, Y4, Y5, Y8, Y14, Y21, Y23, 20C and 22C) having the structure of formula (5), which are prominent with their cytotoxicity in A498, MIAPaCa-2 and HCT-116 cancer cell lines and nontoxic properties in healthy cells, on general tyrosine kinase activity in cancer cells are determined.

A498 cells = assay: Apoptosis/necrosis detection, Annexin V/PI flow cytometry, A498; assay type: cell-based, human
Experimental: After incubation with 2-indolinone compounds (IC50 μM concentration; 48 and/or 72 hours), cells are washed twice with PBS and the cell pellet is suspended in Annexin V binding buffer. After this incubation, cells are incubated with FITC-conjugated Annexin V and propidium iodine staining solution for 15 minutes in the dark and at room temperature. Then, cells are analyzed by flow cytometry (Beckman coulter, Navios) (Wlodkowic, D., Skommer, J, Darzynkiewicz, Z. 2009. Flow cytometry-based apoptosis detection, Methods Mol Biol., 559, 1-14).

[2] = tested on: general tyrosine kinase activity in HCT116 colon cancer cells; assay: General tyrosine kinase activity (ELISA) in HCT-116 cells; assay type: cell-based, human; conditions: 72 hours, IC50 concentration
Experimental: as §1, with “determination.” for “determination. After the extracts obtained from the control and experimental groups are diluted 1:25, 40 μl extracts is transferred to two wells in the 96-well plate in the kit. In addition, the standard solution in the kit is diluted according to the kit instructions and each concentration is transferred 40 μl into three wells. 10 μl of 40 mM ATP-2Na solution is added to all wells and the plate is incubated at 37° C. for 30 minutes.”

human cancer cells = assay: MTT cell viability, human cancer cells overall; assay type: cell-based; conditions: cell line as discussed at the place
Excerpt: The cytotoxicity, general tyrosine kinase inhibitory effects and cell death (apoptosis/necrosis) assays of 1-benzyl-3-(1H-indol-3-ylmethylidene)-1,3-dihydro-2H-indol-2-one derivatives (Formula 5) of the present invention are studied by the following methods. […] HUVEC (human umbilical vein endothelial cell), MCF-10F (human breast epithelial cell) and Beas2b (human lung bronchial epithelial cell) cell lines have been used as healthy control cells in MTT experiments.
Beas2b (human lung bronchiole epithelial cell) and HEK293 (renal tubule epithelium) cells used as normal cell lines were cultured in RPMI medium, and HUVEC (human umbilical cord endothelial cells) and MCF-10F (human breast epithelial cell) cells are cultured in DMEM medium containing 100 µg/ml penicillin/streptomycin. The cells, which covered 70% of the culture flask, are washed with phosphate buffer and then removed from the surface of the flask by application of trypsin-ethylenediamine tetraacetic acid (Trypsin-EDTA; 0.25%) solution, passaged, counted and seeded on appropriate plates before each experiment. Cells are treated with a total of 45 2-indolinone compounds (5) at concentrations of 0.1, 1, 5 and 10 μM. Stock compounds are prepared in 1 ml dimethylsulfoxide (DMSO) and 4 different dilutions were prepared with medium and performed to the cells. Control group cells are treated with DMSO at a similar concentration to the experimental groups.
MTT (3-(4,5-dimethylthiazol-2-yl)-2,5-diphenyl-2H-tetrazolium bromide) colorimetric assay provides quantitation of viable cells with ongoing mitochondrial activity in culture medium. According to the standard procedure in cell culture conditions, cells are maintained in RPMI-1640 and DMEM culture media containing 10% FBS and 1% penicillin/streptomycin. The trypan blue test is used for cell counts.
The effects of 45 2-indolinone compounds (5) on cell viability in all cancer cell lines are investigated by MTT assay. Cells are seeded in a 96-well flat bottom plate with 5000 cells in each well and 2-indolinone compounds (5) at concentrations of 0.1, 1, 5 and 10 μM are performed to the cells the next day. After 48 and/or 72 hours following treatment with 2-indolinone compounds, 50 μl of the supernatant is slowly discarded (as it was acid medium) and MTT at a concentration of 5 mg/ml is added to each well in a volume of 10 μl. After incubation for 4 hours, the formazan crystals formed in the wells are dissolved by adding 100 μl DMSO and the optical density is read at 570 nm test wavelength and 630 nm reference wavelength. Cell viability is expressed as % cell viability by comparing the absorbance of control and test wells. IC50 value is calculated from the dose-response curves prepared for each compound. In addition, the possible DMSO effect is eliminated by preparing negative control wells compatible with the amount of DMSO contained in the compounds. To understand the reaction of the compounds with MTT, cell-free (MTT+compounds) negative controls are prepared at the concentrations used (Mosmann, 1983). […] The absorbance values obtained are compared to the control and statistically evaluated by unpaired t-test using “Graphpad Prism 5.04” software. “P<0.05” is accepted as significant. When evaluating cytotoxic effects, the present inventors aim for the inventive compounds to be effective in cancer cells and ineffective in healthy cells. […]

## Cc1ccc2c(c1)/C(=C/c1c[nH]c3ccccc13)C(=O)N2Cc1ccccc1 [Y3]
[1]; 48 h
  general tyrosine kinase activity compared to control: significantly decreased; also recorded: decreased the general tyrosine kinase activity
A498 cells; A498
  necrosis compared to control: no increase or decrease; also recorded: did not cause necrosis
A498 cells; A498, IC50 concentration
  Apoptosis rate compared to control: increased significantly

## O=C1/C(=C\c2c[nH]c3ccccc23)c2cc(OC(F)(F)F)ccc2N1Cc1ccccc1 [Y4]
[2]
  tyrosine kinase activity compared to control: did not cause a significant change
Human cancer cells
  potency/selectivity compared with sunitinib malate: more potent than Sunitinib malate

## Cc1ccc2c(c1)/C(=C/c1c[nH]c3ccccc13)C(=O)N2Cc1cccc(F)c1 [Y8]
[1]; 72 h
  general tyrosine kinase activity compared to control: did not cause a significant change
